Source: PMC6112376, “Comprehensive Analyses and Prioritization of Tox21 10K Chemicals Affecting Mitochondrial Function by in-Depth Mechanistic Studies” (Environmental Health Perspectives, 2018)
Like-named read-outs stand apart in the source and are kept apart here.

Key:
HepG2 cells [1] = conditions: cited from earlier work
rat primary hepatocytes [2] = assay: MMP assay in rat primary hepatocytes; conditions: Rattus norvegicus, Hepatocyte
hNSC = assay: MMP assay in human neural stem cells (hNSC); assay type: cell-based; conditions: Homo sapiens, Neural stem cell, 1 h, read-out: hNSC IC50 (MMP)
[3] = tested on: Caenorhabditis elegans strain PE255; assay: In vivo C. elegans ATP status assay
[4] = tested on: isolated rat liver mitochondria; assay: Oxygen consumption, Clark-type oxygen electrode; assay type: biochemical
[5] = tested on: HeLa cells expressing YFP-Parkin; assay: Parkin translocation assay; assay type: cell-based, human
HepG2 cells [6] = assay: cells; conditions: Homo sapiens
HepG2 cells [7] = assay: ROS-Glo hydrogen peroxide (ROS) assay; assay type: cell-based, human
rat primary hepatocytes [8] = tested on: rat primary hepatocytes
[9] = tested on: Nrf2/ARE (ARE-bla HepG2 cells); assay: ARE β-lactamase reporter gene assay; assay type: cell-based, human; conditions: 16 h incubation; mean±SD of three experiments
HepG2 cells [10] = assay: Intracellular ATP content (cell viability) assay; assay type: cell-based, human
[11] = tested on: p53 (p53-bla HCT-116 cells); assay: p53 β-lactamase reporter gene assay; assay type: cell-based, human; conditions: 16 h incubation; mean±SD of three experiments
[12] = tested on: Caenorhabditis elegans (Bristol N2); assay: C. elegans larval development and growth assay

O=C(Nc1ccccc1)Nc1ccccc1 [Diphenylurea]
MMP assays efficacy (%) qHTS-HepG2 (HepG2 cells [1]): -111±9%
IC50 (HepG2 cells [1]; read-out: MMP assays IC50 (µM) qHTS-HepG2): 1.6 ± 0.74 µM
IC50 (rat primary hepatocytes [2]; 1 h, read-out: Rat hepatocytes IC50 (MMP)): 15.4 µM
IC50 (rat primary hepatocytes [2]; read-out: MMP assays IC50 (µM) Rat Hepatocytes): 8.46 ± 2.39 µM
IC50 (hNSC): 12.1 µM
LUM: mean difference in luminescence (ATP content) relative to plate controls ([3]; 0.5 µM): 0.08612
LUM: mean difference in luminescence (ATP content) relative to plate controls ([3]; 1 µM): 0.1632
LUM: mean difference in luminescence (ATP content) relative to plate controls ([3]; 5 µM): 0.3729
LUM: mean difference in luminescence (ATP content) relative to plate controls ([3]; 10 µM): 1.1516
LUM: mean difference in luminescence (ATP content) relative to plate controls ([3]; 25 µM): 1.501
LUM: mean difference in luminescence (ATP content) relative to plate controls ([3]; 50 µM): 1.222
LUM: mean difference in luminescence (ATP content) relative to plate controls ([3]; 75 µM): 0.9702
LUM: mean difference in luminescence (ATP content) relative to plate controls ([3]; 100 µM): 0.9744
effect on ATP content (in words) ([3]; 0.5–100μM): statistically significant decreases in ATP content
minimal effective concentration ([3]; Caenorhabditis elegans, read-out: LEC LUM: lowest effect concentration for luminescence, a measure of nematode ATP content): 10 µM
Potential Mechanism [4]: Uncoupler at low concentrations (20 µM), and Uncoupler + inhibitor at high concentrations (100 µM)
I-ADP, % of control (O2 consumption rate) ([4]; 0.8 µM): 97 (36.2) % of control
I-sub, % of control (O2 consumption rate) ([4]; 0.8 µM): 105 (11.3) % of control
II-ADP, % of control (O2 consumption rate) ([4]; 0.8 µM): 91 (57.2) % of control
II-sub, % of control (O2 consumption rate) ([4]; 0.8 µM): 106 (19.6) % of control
I-ADP, % of control (O2 consumption rate) ([4]; 4 µM): 93 (34.6) % of control
I-sub, % of control (O2 consumption rate) ([4]; 4 µM): 104 (11.2) % of control
II-ADP, % of control (O2 consumption rate) ([4]; 4 µM): 83 (52.5) % of control
II-sub, % of control (O2 consumption rate) ([4]; 4 µM): 97 (18.0) % of control
I-ADP, % of control (O2 consumption rate) ([4]; 20 µM): 96 (35.6) % of control
I-sub, % of control (O2 consumption rate) ([4]; 20 µM): 144 (15.5) % of control
II-ADP, % of control (O2 consumption rate) ([4]; 20 µM): 91 (57.6) % of control
II-sub, % of control (O2 consumption rate) ([4]; 20 µM): 129 (23.9) % of control
I-ADP, % of control (O2 consumption rate) ([4]; 100 µM): 38 (19.1) % of control
I-sub, % of control (O2 consumption rate) ([4]; 100 µM): 167 (35.8) % of control
II-ADP, % of control (O2 consumption rate) ([4]; 100 µM): 25 (15.1) % of control
II-sub, % of control (O2 consumption rate) ([4]; 100 µM): 55 (19.1) % of control
Parkin recruitment [5]: Inactive
IC50 (HepG2 cells [6]; HepG2, 1 h, read-out: HepG2 IC50 Galactose (MMP)): 10.3 µM
IC50 (HepG2 cells [6]; HepG2, 1 h, read-out: HepG2 IC50 Glucose (MMP)): 7.73 µM
IC50 (HepG2 cells [6]; HepG2, read-out: MMP assays IC50 (µM) HepG2): 2.51 µM
Emax (HepG2 cells [6]; HepG2, read-out: MMP assays efficacy (%) HepG2): 131%
ROS (HepG2) EC50 (HepG2 cells [7]): Inactive
MMP assays efficacy (%) Rat Hepatocytes (rat primary hepatocytes [8]): -72±30%
Rat hepatocytes (efficacy) (MMP) (rat primary hepatocytes [8]): 15.4±2.88 ( −117±8.21 ) %
ARE (HepG2) EC50 [9]: Inactive
ATP (HepG2, galactose) IC50 (HepG2 cells [10]): Inactive
ATP (HepG2, glucose) IC50 (HepG2 cells [10]): Inactive
p53 (HCT-116) EC50 [11]: Inactive
EXT: mean difference in nematode size relative to plate controls ([12]; 0.5 µM): 0.0636
EXT: mean difference in nematode size relative to plate controls ([12]; 1 µM): 0.005834
EXT: mean difference in nematode size relative to plate controls ([12]; 5 µM): -0.06608
EXT: mean difference in nematode size relative to plate controls ([12]; 10 µM): 0.006337
EXT: mean difference in nematode size relative to plate controls ([12]; 25 µM): 0.05471
EXT: mean difference in nematode size relative to plate controls ([12]; 50 µM): 0.1792
EXT: mean difference in nematode size relative to plate controls ([12]; 75 µM): 0.1069
EXT: mean difference in nematode size relative to plate controls ([12]; 100 µM): 0.0228
effect on larval growth (in words) ([12]; 0.5–100μM): did not affect growth
